Test results published in paper PMC8159961, “Exploring protein hotspots by optimized fragment pharmacophores” (Nature Communications, 2021).
Several values for one entry are separate records, joined by “and”; a condition that tells them apart may be missing. Equal values may be shown once. Read-outs that look alike come from different tables or passages of the source.

How the values were obtained:
[1] = system: SARS-CoV-2; experiment: microbe, parasite or virus in culture; format: cell-based
[2] = target: SARS-CoV-2 3CLPro (Severe acute respiratory syndrome coronavirus 2, UniProt P0DTD1); experiment: biochemical

`CS(=O)(=O)c1ccc(N2CCNCC2)cc1` [SX013] was tested, and the “Inhibition (%)” value ([1]; 10 uM, Vero E6, replicates) was 0% (2×) and 3.199%, the “viral copy numbers normalized to the control (untreated infected cells)” value (from here on “viral copy numbers normalized”) ([1]; 10 uM, Vero E6, replicates) was 1.473 and 0.968 and 1.581 and the “Inhibition (%)” value ([1]; 100 uM, Vero E6, replicates) was 10.36% and 9.981% and 0%. For the same compound, the “viral copy numbers normalized” value ([1]; 100 uM, Vero E6, replicates) was 0.8964 and 0.9002 and 2.418, the “Inhibition (%)” value ([1]; 250 uM, Vero E6, replicates) was 47.65% and 50.9% and the “viral copy numbers normalized” value ([1]; 250 uM, Vero E6, replicates) was 0.5487 and 0.5235 and 0.491. For the same compound, the “Inhibition (%)” value ([1]; 500 uM, Vero E6, replicates) was 62.09% and 74.66%, the “viral copy numbers normalized” value ([1]; 500 uM, Vero E6, replicates) was 0.2563 and 0.3791 and 0.2534 and the “Inhibition (%)” value ([1]; 750 uM, Vero E6, replicates) was 96.1% and 86.32%. For the same compound, the “viral copy numbers normalized” value ([1]; 750 uM, Vero E6, replicates) was 0.06859 and 0.03899 and 0.1368, the “Inhibition (%)” value ([1]; 1000 uM, Vero E6, replicates) was 99.81% and the “viral copy numbers normalized” value ([1]; 1000 uM, Vero E6, replicates) was 0.003839 and 0.001919 and 0. The “Inhibition (%)” value ([1]; 1500 uM, Vero E6, replicates) was 99.97%, the “viral copy numbers normalized” value ([1]; 1500 uM, Vero E6, replicates) was 0 (2×) and 0.000289 and the inhibition at 250 µM ([1]; Severe acute respiratory syndrome coronavirus 2, Vero C1008, 250 uM, Vero E6, replicates) was 45.1%. For the same compound, the inhibition at 500 µM ([1]; Severe acute respiratory syndrome coronavirus 2, Vero C1008, 500 uM, Vero E6, replicates) was 74.4%, the inhibition at 750 µM ([1]; Severe acute respiratory syndrome coronavirus 2, Vero C1008, 750 uM, Vero E6, replicates) was 93.1% and the inhibition at 1000 µM ([1]; Severe acute respiratory syndrome coronavirus 2, Vero C1008, 1000 uM, Vero E6, replicates) was 99.6%. The inhibition at 1500 µM ([1]; Severe acute respiratory syndrome coronavirus 2, Vero C1008, 1500 uM, Vero E6, replicates) was 100%, the EC50 ([1]; Severe acute respiratory syndrome coronavirus 2, Vero C1008, 48 h, read-out: EC50, blocking SARS-CoV-2 replication, Vero E6 cells, 48 h post infection) was 304 µM and the EC50 ([1]; read-out: EC50, blocking SARS-CoV-2 replication, Vero E6 cells, 48 h post infection) was 304 µM. The IC50 [2] was 31 µM.
